Experimental data as given in ChEMBL document CHEMBL1250513, “(R,S)-anti-1-amino-2-[18F]fluorocyclopentyl-1-carboxylic acid: synthesis from racemic 2-benzyloxycyclopentanone and biological evaluation for brain tumor imaging with positron emission tomography” (J Med Chem, 2010).

Experiments:
[1] = test system: Blood; assay: Biodistribution in rat 9L tumor bearing fisher rat blood at 40 to 50 uCi, iv after 15 mins; type: ADME, organism-based; conditions: in vivo, 0.25 h
[2] = test system: Heart; assay: Biodistribution in rat 9L tumor bearing fisher rat heart at 40 to 50 uCi, iv after 15 mins; type: ADME, organism-based; conditions: in vivo, 0.25 h
[3] = test system: Lung; assay: Biodistribution in rat 9L tumor bearing fisher rat lung at 40 to 50 uCi, iv after 15 mins; type: ADME, organism-based; conditions: in vivo, 0.25 h
[4] = test system: Liver; assay: Biodistribution in rat 9L tumor bearing fisher rat liver at 40 to 50 uCi, iv after 15 mins; type: ADME, organism-based; conditions: in vivo, 0.25 h
[5] = test system: Pancreas; assay: Biodistribution in rat 9L tumor bearing fisher rat pancreas at 40 to 50 uCi, iv after 15 mins; type: ADME, organism-based; conditions: in vivo, 0.25 h
[6] = test system: Spleen; assay: Biodistribution in rat 9L tumor bearing fisher rat spleen at 40 to 50 uCi, iv after 15 mins; type: ADME, organism-based; conditions: in vivo, 0.25 h
[7] = test system: Kidney; assay: Biodistribution in rat 9L tumor bearing fisher rat kidney at 40 to 50 uCi, iv after 15 mins; type: ADME, organism-based; conditions: in vivo, 0.25 h
[8] = test system: Muscle tissue; assay: Biodistribution in rat 9L tumor bearing fisher rat muscle at 40 to 50 uCi, iv after 15 mins; type: ADME, organism-based; conditions: in vivo, 0.25 h
[9] = test system: Brain; assay: Biodistribution in rat 9L tumor bearing fisher rat brain at 40 to 50 uCi, iv after 15 mins; type: ADME, organism-based; conditions: in vivo, 0.25 h
[10] = Biodistribution in rat 9L tumor bearing fisher rat tumor at 40 to 50 uCi, iv after 15 mins; type: ADME, organism-based, Neoplasm; conditions: in vivo, 0.25 h
[11] = test system: Testes; assay: Biodistribution in rat 9L tumor bearing fisher rat testes at 40 to 50 uCi, iv after 15 mins; type: ADME, organism-based, Testis; conditions: in vivo, 0.25 h
[12] = test system: Bone; assay: Biodistribution in rat 9L tumor bearing fisher rat bone at 40 to 50 uCi, iv after 15 mins; type: ADME, organism-based, Bone element; conditions: in vivo, 0.25 h
[13] = test system: Blood; assay: Biodistribution in rat 9L tumor bearing fisher rat blood at 40 to 50 uCi, iv after 30 mins; type: ADME, organism-based; conditions: in vivo, 0.5 h
[14] = test system: Heart; assay: Biodistribution in rat 9L tumor bearing fisher rat heart at 40 to 50 uCi, iv after 30 mins; type: ADME, organism-based; conditions: in vivo, 0.5 h
[15] = test system: Lung; assay: Biodistribution in rat 9L tumor bearing fisher rat lung at 40 to 50 uCi, iv after 30 mins; type: ADME, organism-based; conditions: in vivo, 0.5 h
[16] = test system: Liver; assay: Biodistribution in rat 9L tumor bearing fisher rat liver at 40 to 50 uCi, iv after 30 mins; type: ADME, organism-based; conditions: in vivo, 0.5 h
[17] = test system: Pancreas; assay: Biodistribution in rat 9L tumor bearing fisher rat pancreas at 40 to 50 uCi, iv after 30 mins; type: ADME, organism-based; conditions: in vivo, 0.5 h
[18] = test system: Spleen; assay: Biodistribution in rat 9L tumor bearing fisher rat spleen at 40 to 50 uCi, iv after 30 mins; type: ADME, organism-based; conditions: in vivo, 0.5 h
[19] = test system: Kidney; assay: Biodistribution in rat 9L tumor bearing fisher rat kidney at 40 to 50 uCi, iv after 30 mins; type: ADME, organism-based; conditions: in vivo, 0.5 h
[20] = test system: Muscle tissue; assay: Biodistribution in rat 9L tumor bearing fisher rat muscle at 40 to 50 uCi, iv after 30 mins; type: ADME, organism-based; conditions: in vivo, 0.5 h
[21] = test system: Brain; assay: Biodistribution in rat 9L tumor bearing fisher rat brain at 40 to 50 uCi, iv after 30 mins; type: ADME, organism-based; conditions: in vivo, 0.5 h
[22] = Biodistribution in rat 9L tumor bearing fisher rat tumor at 40 to 50 uCi, iv after 30 mins; type: ADME, organism-based, Neoplasm; conditions: in vivo, 0.5 h
[23] = test system: Testes; assay: Biodistribution in rat 9L tumor bearing fisher rat testes at 40 to 50 uCi, iv after 30 mins; type: ADME, organism-based, Testis; conditions: in vivo, 0.5 h
[24] = test system: Bone; assay: Biodistribution in rat 9L tumor bearing fisher rat bone at 40 to 50 uCi, iv after 30 mins; type: ADME, organism-based, Bone element; conditions: in vivo, 0.5 h
[25] = test system: Blood; assay: Biodistribution in rat 9L tumor bearing fisher rat blood at 40 to 50 uCi, iv after 60 mins; type: ADME, organism-based; conditions: in vivo, 1 h
[26] = test system: Heart; assay: Biodistribution in rat 9L tumor bearing fisher rat heart at 40 to 50 uCi, iv after 60 mins; type: ADME, organism-based; conditions: in vivo, 1 h
[27] = test system: Lung; assay: Biodistribution in rat 9L tumor bearing fisher rat lung at 40 to 50 uCi, iv after 60 mins; type: ADME, organism-based; conditions: in vivo, 1 h
[28] = test system: Liver; assay: Biodistribution in rat 9L tumor bearing fisher rat liver at 40 to 50 uCi, iv after 60 mins; type: ADME, organism-based; conditions: in vivo, 1 h
[29] = test system: Pancreas; assay: Biodistribution in rat 9L tumor bearing fisher rat pancreas at 40 to 50 uCi, iv after 60 mins; type: ADME, organism-based; conditions: in vivo, 1 h
[30] = test system: Spleen; assay: Biodistribution in rat 9L tumor bearing fisher rat spleen at 40 to 50 uCi, iv after 60 mins; type: ADME, organism-based; conditions: in vivo, 1 h
[31] = test system: Kidney; assay: Biodistribution in rat 9L tumor bearing fisher rat kidney at 40 to 50 uCi, iv after 60 mins; type: ADME, organism-based; conditions: in vivo, 1 h
[32] = test system: Muscle tissue; assay: Biodistribution in rat 9L tumor bearing fisher rat muscle at 40 to 50 uCi, iv after 60 mins; type: ADME, organism-based; conditions: in vivo, 1 h
[33] = test system: Brain; assay: Biodistribution in rat 9L tumor bearing fisher rat brain at 40 to 50 uCi, iv after 60 mins; type: ADME, organism-based; conditions: in vivo, 1 h
[34] = Biodistribution in rat 9L tumor bearing fisher rat tumor at 40 to 50 uCi, iv after 60 mins; type: ADME, organism-based, Neoplasm; conditions: in vivo, 1 h
[35] = test system: Testes; assay: Biodistribution in rat 9L tumor bearing fisher rat testes at 40 to 50 uCi, iv after 60 mins; type: ADME, organism-based, Testis; conditions: in vivo, 1 h
[36] = test system: Bone; assay: Biodistribution in rat 9L tumor bearing fisher rat bone at 40 to 50 uCi, iv after 60 mins; type: ADME, organism-based, Bone element; conditions: in vivo, 1 h
[37] = test system: Blood; assay: Biodistribution in rat 9L tumor bearing fisher rat blood at 40 to 50 uCi, iv after 120 mins; type: ADME, organism-based; conditions: in vivo, 2 h
[38] = test system: Heart; assay: Biodistribution in rat 9L tumor bearing fisher rat heart at 40 to 50 uCi, iv after 120 mins; type: ADME, organism-based; conditions: in vivo, 2 h
[39] = test system: Lung; assay: Biodistribution in rat 9L tumor bearing fisher rat lung at 40 to 50 uCi, iv after 120 mins; type: ADME, organism-based; conditions: in vivo, 2 h
[40] = test system: Liver; assay: Biodistribution in rat 9L tumor bearing fisher rat liver at 40 to 50 uCi, iv after 120 mins; type: ADME, organism-based; conditions: in vivo, 2 h
[41] = test system: Pancreas; assay: Biodistribution in rat 9L tumor bearing fisher rat pancreas at 40 to 50 uCi, iv after 120 mins; type: ADME, organism-based; conditions: in vivo, 2 h
[42] = test system: Spleen; assay: Biodistribution in rat 9L tumor bearing fisher rat spleen at 40 to 50 uCi, iv after 120 mins; type: ADME, organism-based; conditions: in vivo, 2 h
[43] = test system: Kidney; assay: Biodistribution in rat 9L tumor bearing fisher rat kidney at 40 to 50 uCi, iv after 120 mins; type: ADME, organism-based; conditions: in vivo, 2 h
[44] = test system: Muscle tissue; assay: Biodistribution in rat 9L tumor bearing fisher rat muscle at 40 to 50 uCi, iv after 120 mins; type: ADME, organism-based; conditions: in vivo, 2 h
[45] = test system: Brain; assay: Biodistribution in rat 9L tumor bearing fisher rat brain at 40 to 50 uCi, iv after 120 mins; type: ADME, organism-based; conditions: in vivo, 2 h
[46] = Biodistribution in rat 9L tumor bearing fisher rat tumor at 40 to 50 uCi, iv after 120 mins; type: ADME, organism-based, Neoplasm; conditions: in vivo, 2 h
[47] = test system: Testes; assay: Biodistribution in rat 9L tumor bearing fisher rat testes at 40 to 50 uCi, iv after 120 mins; type: ADME, organism-based, Testis; conditions: in vivo, 2 h
[48] = test system: Bone; assay: Biodistribution in rat 9L tumor bearing fisher rat bone at 40 to 50 uCi, iv after 120 mins; type: ADME, organism-based, Bone element; conditions: in vivo, 2 h
[49] = Ratio of drug uptake in tumor to brain in rat 9L tumor bearing fisher rat […] at 40 to 50 uCi, iv after 15 mins; type: ADME, organism-based; conditions: in vivo, 0.25 h
[50] = Ratio of drug uptake in tumor to brain in rat 9L tumor bearing fisher rat […] at 40 to 50 uCi, iv after 30 mins; type: ADME, organism-based; conditions: in vivo, 0.5 h
[51] = Ratio of drug uptake in tumor to brain in rat 9L tumor bearing fisher rat […] at 40 to 50 uCi, iv after 60 mins; type: ADME, organism-based; conditions: in vivo, 1 h
[52] = Ratio of drug uptake in tumor to brain in rat 9L tumor bearing fisher rat […] at 40 to 50 uCi, iv after 120 mins; type: ADME, organism-based; conditions: in vivo, 2 h

- Drug uptake [1]: 0.48 % ID/g
- Drug uptake [2]: 0.56 % ID/g
- Drug uptake [3]: 1.53 % ID/g
- Drug uptake [4]: 0.93 % ID/g
- Drug uptake [5]: 2.77 % ID/g
- Drug uptake [6]: 0.64 % ID/g
- Drug uptake [7]: 4.87 % ID/g
- Drug uptake [8]: 0.28 % ID/g
- Drug uptake [9]: 0.12 % ID/g
- Drug uptake [10]: 0.57 % ID/g
- Drug uptake [11]: 0.23 % ID/g
- Drug uptake [12]: 0.27 % ID/g
- Drug uptake [13]: 0.29 % ID/g
- Drug uptake [14]: 0.44 % ID/g
- Drug uptake [15]: 1.13 % ID/g
- Drug uptake [16]: 0.63 % ID/g
- Drug uptake [17]: 2.91 % ID/g
- Drug uptake [18]: 0.48 % ID/g
- Drug uptake [19]: 3.44 % ID/g
- Drug uptake [20]: 0.28 % ID/g
- Drug uptake [21]: 0.13 % ID/g
- Drug uptake [22]: 1.68 % ID/g
- Drug uptake [23]: 0.18 % ID/g
- Drug uptake [24]: 0.17 % ID/g
- Drug uptake [25]: 0.21 % ID/g
- Drug uptake [26]: 0.3 % ID/g
- Drug uptake [27]: 0.8 % ID/g
- Drug uptake [28]: 0.41 % ID/g
- Drug uptake [29]: 2.65 % ID/g
- Drug uptake [30]: 0.3 % ID/g
- Drug uptake [31]: 2 % ID/g
- Drug uptake [32]: 0.24 % ID/g
- Drug uptake [33]: 0.1 % ID/g
- Drug uptake [34]: 1.24 % ID/g
- Drug uptake [35]: 0.14 % ID/g
- Drug uptake [36]: 0.14 % ID/g
- Drug uptake [37]: 0.14 % ID/g
- Drug uptake [38]: 0.28 % ID/g
- Drug uptake [39]: 0.78 % ID/g
- Drug uptake [40]: 0.4 % ID/g
- Drug uptake [41]: 1.84 % ID/g
- Drug uptake [42]: 0.18 % ID/g
- Drug uptake [43]: 0.89 % ID/g
- Drug uptake [44]: 0.17 % ID/g
- Drug uptake [45]: 0.1 % ID/g
- Drug uptake [46]: 0.98 % ID/g
- Drug uptake [47]: 0.13 % ID/g
- Drug uptake [48]: 0.13 % ID/g
- Ratio [49]: 5
- Ratio [50]: 13
- Ratio [51]: 12
- Ratio [52]: 10
Structure (SMILES): N[C@@]1(C(=O)O)CCC[C@@H]1[18F] (racemic)
